Reference: patent US8633188B2, “Aminodihydrothiazine derivatives” (Shionogi & Co., Ltd., priority 2005, dated 2014)

Target: recombinant human BACE-1 protein (Homo sapiens (Human), UniProt P56817)
Sequence (P56817 46-501): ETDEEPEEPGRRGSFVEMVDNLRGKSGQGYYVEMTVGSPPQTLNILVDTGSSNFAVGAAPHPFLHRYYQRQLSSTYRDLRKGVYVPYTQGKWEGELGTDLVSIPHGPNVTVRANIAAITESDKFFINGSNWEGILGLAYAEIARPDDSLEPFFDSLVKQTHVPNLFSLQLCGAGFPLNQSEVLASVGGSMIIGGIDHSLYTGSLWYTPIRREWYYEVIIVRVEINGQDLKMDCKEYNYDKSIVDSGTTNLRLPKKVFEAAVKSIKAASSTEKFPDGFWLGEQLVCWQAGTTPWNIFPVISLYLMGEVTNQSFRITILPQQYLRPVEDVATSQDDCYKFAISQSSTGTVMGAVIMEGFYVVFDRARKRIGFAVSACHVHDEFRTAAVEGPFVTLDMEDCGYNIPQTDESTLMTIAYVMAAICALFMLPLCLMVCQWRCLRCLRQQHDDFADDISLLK
Experiment: Measurement of inhibition of β-secretase activity (fluorescence-quenched peptide substrate, time-resolved fluorescence)
Format: biochemical
Conditions: recombinant human BACE-1 7.4 nM, substrate peptide 18 nM, pH 5.0, 3 h at 30° C.; same test as table 170
Method: Zero point five μL of the test compounds (dissolved in N,N′-dimethylsulfoxide) were incubated with 48.5 μL of the fluorescence-quenched peptide substrate solution (Biotin-XSEVNLDAEFRHDSGC-Eu: X=εe-amino-n-capronic acid,Eu=Europium cryptate) and 1 μL of recombinant human BACE-1 protein (R&D systems) for 3 h at 30° C. in the 96 well half-area plate (black color plate,Costar). The substrate peptide was synthesized by reacting with Biotin-XSEVNLDAEFRHDSGC (Peptide Institute) and Cryptate TBPCOOH mono SMP (CIS bio international). […] The enzymatic reaction was performed in sodium acetate buffer (50 mM sodium acetate (pH 5.0), 0.008% Triton X-100). After the reaction, a 50 μL of 8.0 μg/mL Streptavidin-XL665 (CIS bio international) dissolved in phosphate buffer (150 mM K2HPO4—KH2PO4 (pH 7.0), 0.008% Triton X-100, 0.8 M KF) was add to each well and incubated for 1 h at 30° C.
In the case of `CC1(c2cccc(NC(=O)c3ncc(Br)cn3)c2)CCSC(N)=N1` (stereo not drawn) [Compound 900], the IC50 is reported as under 100 µM. `CC1(c2cccc(NC(=O)/C=C/c3cccc(F)c3)c2)CCSC(N)=N1` (stereo not drawn) [Compound 36] gave an IC50 of under 100 µM. Compound `CC1(c2cc(NC(=O)c3ccc(Cl)cc3)cc(S(C)(=O)=O)c2)CCSC(N)=N1` (stereo not drawn) [Compound 30] has an IC50 of under 100 µM. `CC1(c2cccc(CCC(=O)Nc3ccccc3)c2)CCSC(N)=N1` (stereo not drawn) [Compound 732] showed an IC50 of under 100 µM. `CC1(c2cccc(NC(=O)c3ccnnc3)c2)CCSC(N)=N1` (stereo not drawn) [Compound 1274] showed an IC50 of under 100 µM. Work on `CC1(c2cc(NC(=O)c3ccc(Br)cc3)cc(S(C)(=O)=O)c2)CCSC(N)=N1` (stereo not drawn) [Compound 71] yielded an IC50 of under 100 µM.

Tested on: not given
Experiment: not given
Conditions: not given
`CC1(c2cccc(NC(=O)c3ccc(C4CC4)cn3)c2)CCSC(N)=N1` (stereo not drawn) [Compound 738] showed a melting point of 181 to 183 °C. Work on `CC1(c2cccc(NC(=O)c3ncc(Br)cn3)c2)CCSC(N)=N1` (stereo not drawn) [Compound 900] yielded a melting point of 205 to 207 °C. `CC1(c2ccccc2)CCOC(N)=N1.Cl` (stereo not drawn) gave a melting point of 194 to 195 °C.
